{
  "source": "patent US20130116215A1",
  "about": "“COMBINATION THERAPIES FOR TREATING NEUROLOGICAL DISORDERS” (priority 2011, published 2013)",
  "key": {"TAU phosphorylation": {"test_system": "TAU phosphorylation", "assay": "phospho-tau and Tau ELISA assay in tau-transfected HT4 cells", "format": "cell-based", "conditions": "tau-transfected mouse hippocampal-derived HT4 cell line", "description": "Docetaxel is a clinically well established anti-mitotic chemotherapy medication used mainly for the treatment of breast, ovarian and non-small cell lung cancer which had shown close proximity with Tau motive. Neurofibrillary tangles, a hallmark of AD, are intracellular abnormally aggregates of hyperphosphorylated protein TAU [19]. In that sense, Tau pathology was evaluated on tau-transfected in a mouse hippocampal-derived HT4 cell line using a phospho-tau and Tau ELISA assay (Sigma-aldrich, St Louis, Mo.). The level of TAU phosphorylation is used as an indicator of the degree of TAU pathology."}, "[1]": {"biological_target": "T1, Acetylcholinesterase (AChE) (Electrophorus electricus, UniProt O42275)", "T1 construct": "purchased Invitrogen, Carlsbad, Calif", "T1 sequence (O42275 24-633)": "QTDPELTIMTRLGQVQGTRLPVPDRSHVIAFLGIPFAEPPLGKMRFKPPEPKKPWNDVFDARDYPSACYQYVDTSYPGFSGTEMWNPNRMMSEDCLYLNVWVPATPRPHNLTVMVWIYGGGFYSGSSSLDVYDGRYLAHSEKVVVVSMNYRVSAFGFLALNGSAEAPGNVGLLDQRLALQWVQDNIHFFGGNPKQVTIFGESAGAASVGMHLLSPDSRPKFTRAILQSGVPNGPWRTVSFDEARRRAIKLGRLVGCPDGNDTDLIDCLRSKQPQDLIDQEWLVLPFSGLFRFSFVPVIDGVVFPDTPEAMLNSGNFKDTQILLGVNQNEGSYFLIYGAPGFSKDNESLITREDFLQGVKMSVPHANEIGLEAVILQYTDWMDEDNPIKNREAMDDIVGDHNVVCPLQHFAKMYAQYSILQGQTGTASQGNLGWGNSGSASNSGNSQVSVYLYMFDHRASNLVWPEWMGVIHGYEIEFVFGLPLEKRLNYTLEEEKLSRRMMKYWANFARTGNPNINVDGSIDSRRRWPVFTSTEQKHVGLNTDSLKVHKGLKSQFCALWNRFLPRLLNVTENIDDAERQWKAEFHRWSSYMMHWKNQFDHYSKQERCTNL", "format": "biochemical", "description": "(§1) Current therapy for AD is based on improving the brain synaptic availability of acetylcholine by using acetylcholinesterase inhibitors (AChEls). Therefore, potential drug effect on neuronal dysfunction was studied with an in vitro Acetylcholinesterase (AChE) assay using Amplex Red Acetylcholine/Assay Kit (Invitrogen, Carlsbad, Calif.). The efficacy of ridogrel on memory was obtained running dose-response (10-100 μM). 10 μM Eserine, an anticholinesterase drug, was used as positive control.\nas §1, with “diminazene aceturate” for “ridogrel”, “(1-500” for “(10-100”"}, "[2]": {"test_system": "cells stably expressing wild-type presenilin-1 an Aβ precursor protein", "assay": "Aβ1-40 and Aβ1-42 ELISA on extracellular media of treated cells", "format": "cell-based", "source_text": "The putative neurological effects of this drug have been confirmed experimentally using sensitive Aβ1-40 and Aβ1-42 ELISA kits (Wako, Osaka, Japan) on the extracellular media of treated and untreated cells stably expressing wild-type presenilin-1 an Aβ precursor protein. […] Aggregation and fibril formation of Aβ peptides are central events in the pathogenesis of Alzheimer's disease. Previous studies have established the ratio of Aβ1-40 to Aβ1-42 as an important factor in determining the fibrillogenesis, and toxicity of amyloid plaques."}, "[3]": {"conditions": "extracellular media, treated vs untreated cells"}},
  "note": "“Also recorded” adds a separate entry of the source. Where two headings read alike, the source gives them in different places.",
  "data": [
    {"compound": "CC(=O)O[C@@]12CO[C@@H]1C[C@H](O)[C@@]1(C)C(=O)[C@H](O)C3=C(C)[C@@H](OC(=O)[C@H](O)[C@@H](NC(=O)OC(C)(C)C)c4ccccc4)C[C@@](O)([C@@H](OC(=O)c4ccccc4)[C@H]21)C3(C)C", "note": "[Docetaxel]", "values": [
      {"measurement": "TAU phosphorylation (pTAU/TAU ratio)", "setting": "TAU phosphorylation", "result": "significantly reduces"},
      {"measurement": "TAU phosphorylation (pTAU/TAU ratio)", "setting": "TAU phosphorylation; listed as docetaxel", "result": "reduces TAU phosphorylation"}
    ]},
    {"compound": "O=C(O)CCCCO/N=C(/c1cccnc1)c1cccc(C(F)(F)F)c1", "note": "[Ridogrel]", "values": [
      {"measurement": "inhibition of AChE", "setting": "[1]; dose-response 10-100 μM, inhibition with dose 100 to 25 μM", "result": "dose-dependent inhibition"}
    ]},
    {"compound": "Cc1c(OCC(F)(F)F)ccnc1C[S+]([O-])c1nc2ccccc2[nH]1", "note": "(stereo not shown) [Lansoprazole]", "values": [
      {"measurement": "Aβ1-40 peptide production", "setting": "[2]; [3]", "result": "significantly increases"},
      {"measurement": "Aβ1-42 peptide production", "setting": "[2]; [3]", "result": "significantly increase"},
      {"measurement": "Aβ1-40/Aβ1-42 ratio", "setting": "[2]; treated cells", "result": "significant reduction; also recorded: reduces"}
    ]},
    {"compound": "N=C(N)c1ccc(/N=N/Nc2ccc(C(=N)N)cc2)cc1", "note": "[Diminazene Aceturate, Diminazene aceturate]", "values": [
      {"measurement": "inhibition of AChE", "setting": "[1]; dose-response 1-500 μM, inhibition with dose 500 to 10 μM", "result": "dose-dependent inhibition"}
    ]}
  ]
}
